We go through one molecule from ChEMBL document CHEMBL5725750, “Bifunctional compounds and use for reducing uric acid levels” (2018).

This assay has as its target Xanthine dehydrogenase/oxidase (Homo sapiens, UniProt P47989). The assay is described as follows: xanthine oxidase activity: Xanthine oxidase inhibition was determined using a standard fluorescence-based assay for xanthine oxidase activity (McHale A, Grimes H, Coughlan M P: Int J Biochem. 10:317-9, 1979) with minor variations. […] Experiments on test compounds were performed in triplicate in multi-well plates using 10 concentrations of each compound that ranged over a 3-fold dilution.

For orientation: IC50 means the concentration needed to halve the response being measured. Read a low IC50 as greater potency.

Chain of Xanthine dehydrogenase/oxidase (P47989 whole entry): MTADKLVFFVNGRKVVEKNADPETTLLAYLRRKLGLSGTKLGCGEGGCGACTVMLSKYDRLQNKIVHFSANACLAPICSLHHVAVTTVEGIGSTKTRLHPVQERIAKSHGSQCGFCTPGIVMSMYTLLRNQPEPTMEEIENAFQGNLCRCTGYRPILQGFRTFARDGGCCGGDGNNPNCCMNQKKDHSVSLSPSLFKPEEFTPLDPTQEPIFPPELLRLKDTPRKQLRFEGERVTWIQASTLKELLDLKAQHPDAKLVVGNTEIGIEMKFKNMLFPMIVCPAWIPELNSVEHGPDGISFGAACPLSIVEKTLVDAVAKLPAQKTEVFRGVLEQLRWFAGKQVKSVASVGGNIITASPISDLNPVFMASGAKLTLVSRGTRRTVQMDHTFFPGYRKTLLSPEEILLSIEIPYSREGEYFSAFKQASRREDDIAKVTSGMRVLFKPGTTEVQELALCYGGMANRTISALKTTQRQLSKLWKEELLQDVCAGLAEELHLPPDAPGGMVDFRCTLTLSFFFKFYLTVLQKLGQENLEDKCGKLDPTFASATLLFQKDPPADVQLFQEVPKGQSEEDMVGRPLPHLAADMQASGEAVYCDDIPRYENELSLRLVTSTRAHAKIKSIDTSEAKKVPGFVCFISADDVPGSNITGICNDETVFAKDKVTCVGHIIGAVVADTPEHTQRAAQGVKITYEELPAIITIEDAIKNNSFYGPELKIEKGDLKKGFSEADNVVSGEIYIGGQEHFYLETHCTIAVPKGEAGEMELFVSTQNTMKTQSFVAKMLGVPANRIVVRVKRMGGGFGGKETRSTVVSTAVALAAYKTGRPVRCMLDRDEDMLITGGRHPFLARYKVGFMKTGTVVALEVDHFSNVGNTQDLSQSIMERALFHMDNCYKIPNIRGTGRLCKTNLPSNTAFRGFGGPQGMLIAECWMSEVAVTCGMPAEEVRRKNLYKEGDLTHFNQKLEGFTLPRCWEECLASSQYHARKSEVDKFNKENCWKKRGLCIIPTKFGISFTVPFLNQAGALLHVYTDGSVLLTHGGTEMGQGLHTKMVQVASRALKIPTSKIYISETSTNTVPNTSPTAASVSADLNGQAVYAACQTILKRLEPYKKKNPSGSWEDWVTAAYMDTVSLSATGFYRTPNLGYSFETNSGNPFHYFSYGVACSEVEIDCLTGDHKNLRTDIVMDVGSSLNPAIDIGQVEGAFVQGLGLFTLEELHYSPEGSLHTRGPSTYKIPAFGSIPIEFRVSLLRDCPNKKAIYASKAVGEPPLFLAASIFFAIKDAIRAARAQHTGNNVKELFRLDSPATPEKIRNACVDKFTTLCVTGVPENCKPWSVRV

For `O=C(O)CSc1nnc(Br)n1-c1ccc(C2CC2)c2ccccc12`, the IC50 was more than 300 µM.
